The test system of this test is luminal breast cancer cells and xenograft derived cells. Nature of the test: mtDNA level (qPCR copy number) in HT-induced dormant cells. Particulars: fulvestrant 10 μM for 2 months; several models of HT-induced dormancy; FIG. 5b. The test is classed as cell-based, human. As for the experimental part: (Panel b) mtDNA level (qPCR as fold change, naïve cells was used as reference) in luminal breast cancer cells and xenograft derived cells (multiple models)±HT (fulvestrant, 10 μM for 2 months). (Panel c) Dormant MCF7 cells (HTD) were isolated and treated with 3×10^9 mCAF-derived EVs (wt-mtDNA^hi or ρ0-mtDNA^lo) weekly ×4+HT (fulvestrant, 10 μM/weekly). After 40 days, mammosphere (MS) number and mitochondrial membrane potential (Δψ) by TMRE staining (red) in HTR/mito^hi EV and HTD/mito^lo EV educated cells was determined; scale bar 15 μm. […] (Panel f) Murine mitochondrial RNA expression (14 genes, as fold change -log10scale-) by qRT-PCR in HTR and HTS cells (panel e) (reference HTDorm cells; MCF7); the expression of nuclear encoded murine (non-mitochondrial RNA) transcripts was also determined (Cox4, β2M). […]
Generation of HTD cells was performed by treating ER+(GFP+) breast cancer cell lines (MCF7, ZR751, BT474) with HT (fulvestrant, 10 μM) for 2 months. […] Viable cell number was subsequently determined using trypan blue exclusion and cell counting using bright field microscopy HTD cells were then cultured in vitro or injected in vivo for further studies. […] Proliferation was determined by Cal cein AM technique (InVitrogen). […] After 40 days, mammosphere number (bright field microscopy) was determined after 40 days. […] Tumor growth was determined by BLI and after necropsy. […]
In general terms: Quantitative PCR measures a nucleic acid by following its amplification.

The source of these data is patent US20190382850A1, “METHOD FOR IDENTIFYING MITOCHONDRIAL DNA IN EXTRACELLULAR VESICLES AND TREATMENT OF MTDNA-RELATED DISORDERS AND CANCER” (Memorial Sloan-Kettering Cancer Center, priority 2017, published 2019).

On to `C[C@]12CC[C@@H]3c4ccc(O)cc4C[C@@H](CCCCCCCCC[S+]([O-])CCCC(F)(F)C(F)(F)F)[C@H]3[C@@H]1CC[C@@H]2O` (stereo partly shown) [fulvestrant], for which the “reduction of mtDNA level (copy number) vs control” value is 70-90%.
